Source: patent US11504367B2, “Compounds and methods for treating oxalate-related diseases” (OxaluRx, Inc., priority 2019, dated 2022)
pIC50: −log10 of the molar value.

Experiments:
[1] = Alternate plasma stability assay; format: in vitro ADME, human, dog, mouse; details: 5 μM
Procedure: Plasma stability. Stock compounds were prepared for testing the stability in human (BioIVT, #BRH1589665), dog (BioIVT, #BGL102122) and mouse (BioIVT, #MSE37887) plasma. 1 mM test compound working solution was prepared in DMSO. A one mM propantheline working solution was prepared in acetonitrile. Propantheline was used as a positive control for human, dog, and mouse plasma in this assay.
Plasma (398 μL) for each compound was added into an incubation plate, and the plate was pre-warmed for 15 minutes at 37° C. The reaction was initiated upon addition of 2 μL of 1 mM working solution (test compounds or control compound) to the plasma to reach a final concentration of 5 μM. The reaction was incubated at 37° C. Aliquots of 50 μL were taken from the reaction samples at 0 and 60 minutes. Adding 450 μL cold acetonitrile containing internal standards stopped the reaction. Once the reaction was stopped, the samples were vortexed for 10 minutes, followed by centrifugation at 3,220 g for 40 minutes to precipitate proteins. The supernatant (100 μL) was transferred to a new plate and diluted with ultrapure water according to the LC-MS signal response and peak shape. Samples were analyzed by LC-MS/MS.

[2] = In-vivo pharmacokinetic evaluation (exposure, AUC fold-over Example 1); details: male CD-1 mice, 10 mg/kg oral gavage in 20% (2-Hydroxypropyl)-β-cyclodextrin, plasma at 0.5, 2 and 6 hours post-dose; AUC expressed as fold-over Example 1
Procedure: In-vivo exposure of test compounds was determined in 5-6 week old male CD-1 mice. Mice (n=2/compound) received 10 mg/kg of each compound formulated in 20% (2-Hydroxypropyl)-β-cyclodextrin (10 μL/g) by oral gavage. At 0.5 hours, 2 hours, and 6 hours post-dose, blood samples were collected from the submandibular vein using EDTA as an anticoagulant and stored on ice. Plasma samples were obtained by centrifugation at 4° C. and were analyzed immediately or stored at −20° C. until analysis. Compounds were extracted from mouse plasma with acetonitrile and quantified by LC-MS-MS in the negative ion mode using a standard curve.

[3] = Alternate liver microsome metabolic stability assay; format: in vitro ADME, human, monkey, dog, rat, mouse; details: liver microsomes, 1 μM, at 30 minutes, all species tested
Procedure: Metabolic Stability. For evaluating the metabolic stability in liver microsomal preparations, two buffers were prepared. Buffer A consisted of 10 mM NADPH and 0.5 mg/mL microsomes in 100 mM of phosphate buffer. Buffer B consisted of 0.5 mg/mL microsomes in 100 mM of phosphate buffer. The reference compound (verapamil) and test compound were prepared as 100 μM DMSO stocks. The source of liver microsomes was as follows: Human (BD Gentest, #452117), monkey (RILD, #LM-SXH-02M), dog (BD, #452601), Rat (BioIVT, #M00001), and mouse (BioIVT, #M00501).
The reaction was started by adding 2.5 μL of 100 μM control compound or test compound solutions to 216.25 μL of prewarmed (37° C.) assay buffer. The final concentration of the control compound and test compounds were 1 μM. […] The reaction was stopped by adding 5 volumes of cold acetonitrile with internal standards (100 nM alprazolam, 200 nM caffeine, and 100 nM tolbutamide). Samples were centrifuged at 3,220 g for 30 minutes. An aliquot of 100 μL of the supernatant was mixed with 100 μL of ultra-pure water and then used for LC-MS/MS analysis.

[4] = target: recombinant full-length human hydroxyacid oxidase 1 (HAO1), the equivalents of hGOX (Homo sapiens (Human), UniProt Q9UJM8); assay: In-vitro human glycolate oxidase (hGOX) assay (Amplex red fluorescence); format: biochemical; details: 6 nM recombinant human GO, 85 μM glycolate, 10 min preincubation
recombinant full-length human hydroxyacid oxidase 1 (HAO1), the equivalents of hGOX, sequence (Q9UJM8 whole entry): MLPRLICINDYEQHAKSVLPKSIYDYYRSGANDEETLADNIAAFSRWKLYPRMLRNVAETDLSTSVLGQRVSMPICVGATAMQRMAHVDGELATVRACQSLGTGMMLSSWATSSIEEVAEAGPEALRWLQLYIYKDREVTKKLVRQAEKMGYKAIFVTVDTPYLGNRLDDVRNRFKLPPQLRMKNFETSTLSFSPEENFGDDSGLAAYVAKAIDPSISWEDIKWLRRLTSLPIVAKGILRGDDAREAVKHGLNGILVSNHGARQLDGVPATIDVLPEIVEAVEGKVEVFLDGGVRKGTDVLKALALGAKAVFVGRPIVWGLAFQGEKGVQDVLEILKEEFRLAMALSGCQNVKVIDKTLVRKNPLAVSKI
Method in brief: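 Activity was read as Amplex Red fluorescence (560/590 nm), with 50 μM reagent added after a 10 min room-temperature incubation. The enzyme, full-length human HAO1, was in pH 7.4 HEPES buffer containing KCl, NaCl, MgCl2 and 0.01% Triton X-100.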

[5] = system: Caco-2 cell monolayers; assay: Alternate Caco-2 permeability assay; format: in vitro ADME; details: alternate Caco-2 assay, 10 μM, 2 hours
Procedure: A working solution for the Caco-2 permeability assay was prepared by diluting test compound stock solutions (2 mM in DMSO) with HBSS (10 mM, pH 7.4) to 10 μM working solution. Metoprolol, erythromycin, and cimetidine were used as the control compounds.
To determine the rate of drug transport in the apical-to-basolateral direction (A-B), 125 μL of the working solution was added to the Transwell insert (apical compartment). 50 μL of each sample was immediately transferred from the apical compartment to 200 μL of acetonitrile containing internal standards (100 nM alprazolam, 200 nM caffeine, and 100 nM tolbutamide) in a new 96-well plate as the initial donor sample (A-B). Samples were vortexed at 1000 rpm for 10 minutes, and the wells in the receiver plate (basolateral compartment) were subsequently filled with 235 μL of transport buffer. Plates were incubated at 37° C. for 2 hours.
To determine the rate of drug transport in the basolateral-to-apical direction (B-A), 285 μL of the working solution was added to the receiver plate wells (basolateral compartment). 50 μL of each sample was transferred immediately from the basolateral compartment to 200 μL of acetonitrile containing internal standards (100 nM alprazolam, 200 nM Caffeine, and 100 nM tolbutamide) in a new 96-well plate as the initial donor sample (B-A). Samples were vortexed at 1000 rpm for 10 minutes, and 75 μL of transport buffer was added to the Transwell insert (apical compartment). Plates were incubated at 37° C. for 2 hours. […]
To determine the Lucifer Yellow leakage after 2 hour transport period, the stock solution of Lucifer yellow was prepared in DMSO and diluted with HBSS (10 mM HEPES, pH 7.4) to reach the final concentration of 100 μM. […] The Lucifer Yellow fluorescence (to monitor monolayer integrity) signal was measured in a fluorescence plate reader at 480 nm excitation and 530 nm emission.

[6] = system: alanine-glyoxylate aminotransferase (AGXT) knockout mice; assay: In vivo efficacy in Agxt−/− mouse model of primary hyperoxaluria 1 (urine oxalate and glycolate)
Procedure: The in-vivo activity of test compounds was evaluated using alanine-glyoxylate aminotransferase (AGXT) knockout mice from Jackson Laboratory (Bar Harbor, Me.), as reported by Martin-Higueras et al., Molecular Therapy, vol. 24 no. 4, 719-725, 2016. Ten to 15-week-old male AGXT knock-out mice (Agxt−/−) were used to assess the in-vivo activity of test compounds on urinary oxalate and glycolate.
Male Agxt−/− mice were housed under standard conditions (five animals per cage) and allowed free access to food and water. Upon study initiation, animals were treated with test compounds by oral gavage formulated in 20% (2-hydroxypropyl)-β-cyclodextrin (10 μL/g). […]
Urine oxalate was measured using a commercially available clinical oxalate oxidase assay (Trinity Biotech, Wicklow, Ireland) following the manufacturer's instructions.
Plasma and urine glycolate were determined by methods described in Dutta et al., “Inhibition of Glycolate Oxidase with Dicer-substrate siRNA Reduces Calcium Oxalate Deposition in a Mouse Model of Primary Hyperoxaluria Type 1.” Mol Ther., 24(4) 770-778 (2016) using liquid chromatography combined with mass spectrometry detection (LC/MS) on a triple-quadrupole instrument by electrospray ionization and multiple reaction monitoring. […] A two-step protein precipitation determined plasma glycolate. […]

[7] = target: glycolate oxidase (GOX) in HepaRG-CAR cells (Homo sapiens (Human), UniProt Q9UJM8); assay: HepaRG-CAR cell-based assay for quantitation of glycolate oxidase inhibition (cellular glycolate flux, GC-MS)
glycolate oxidase (GOX) in HepaRG-CAR cells, sequence (Q9UJM8 whole entry): as above

Row | SMILES | plasma stability half-life (compared with Example 1) [1] | AUC Fold over Ex. 1 [2] | compound remained intact [3] [%] | pIC50 [4] | Papp Efflux Ratio [5] | inhibition of urine oxalate ([6]; compound 1 dosed at 10 and 30 mg/kg, vs vehicle-treated control) | urine glycolate change ([6]; compound 1 dosed twice daily at 10 and 30 mg/kg) | pIC50 [7]
1 | CC(C)CC#Cc1cccc(Oc2[nH]nnc2C(=O)O)c1 [Example 343, 5-(3-(4-Methylpent-1-ynyl)phenoxy)-1H-1,2,3-triazole-4-carboxylic Acid] | similarly long or longer half-lives | 4.3 | 100 | 8.00 | single digits | – | – | –
2 | CS(=O)(=O)c1ccc(C#Cc2cccc(Oc3[nH]nnc3C(=O)O)c2)cc1 [Example 255, 5-(3-(2-(4-(Methylsulfonyl)phenyl)ethynyl)phenoxy)-1H-1,2,3-triazole-4-carboxylic Acid] | similarly long or longer half-lives | 0.1 | 100 | 8.10 | – | – | – | –
3 | O=C(O)c1nn[nH]c1Oc1cccc(C#CCC2CC2)c1 [Example 302, 5-(3-(3-Cyclopropylprop-1-ynyl)phenoxy)-1H-1,2,3-triazole-4-carboxylic Acid] | similarly long or longer half-lives | 4.1 | 100 | 7.89 | single digits | – | – | –
4 | CS(=O)(=O)c1ccc(C#Cc2ccc(Oc3[nH]nnc3C(=O)O)cc2)cc1 [Example 190, 5-(4-(2-(4-(Methylsulfonyl)phenyl)ethynyl)phenoxy)-1H-1,2,3-triazole-4-carboxylic Acid] | similarly long or longer half-lives | – | – | 8.52 | – | – | – | –
5 | O=C(O)c1nn[nH]c1Sc1cccc(C#CCC2CC2)c1 [Example 356, 5-(3-(3-Cyclopropylprop-1-ynyl)phenylthio)-1H-1,2,3-triazole-4-carboxylic Acid] | – | 7.4 | – | 8.22 | single digits | – | – | –
6 | C#Cc1cccc(Oc2[nH]nnc2C(=O)O)c1 [Example 1, 5-(3-Ethynylphenoxy)-1H-1,2,3-triazole-4-carboxylic Acid] | – | 1.0 | – | 7.68 | – | about 30% | concomitant increase in urine glycolate | 5.60
